# Measurements as given in ChEMBL document CHEMBL1201862, “PubChem BioAssay data set” (2004).
# Where a name gives a salt, the structure may show the parent alone. Calls of active or inactive are those of the source.
# Legend:
# Protein RecA = target: T1, Protein RecA (Mycobacterium tuberculosis, UniProt P9WHJ3); assay: Fluorescence Cell-Free Homogeneous Dose Retest to Identify Inhibitors of RecA-Intein Splicing Activity. [Related pubchem assays (depositor defined):AID2097, AID2223, AID489010, AID492950]; format: functional
# T1 sequence (P9WHJ3 whole entry): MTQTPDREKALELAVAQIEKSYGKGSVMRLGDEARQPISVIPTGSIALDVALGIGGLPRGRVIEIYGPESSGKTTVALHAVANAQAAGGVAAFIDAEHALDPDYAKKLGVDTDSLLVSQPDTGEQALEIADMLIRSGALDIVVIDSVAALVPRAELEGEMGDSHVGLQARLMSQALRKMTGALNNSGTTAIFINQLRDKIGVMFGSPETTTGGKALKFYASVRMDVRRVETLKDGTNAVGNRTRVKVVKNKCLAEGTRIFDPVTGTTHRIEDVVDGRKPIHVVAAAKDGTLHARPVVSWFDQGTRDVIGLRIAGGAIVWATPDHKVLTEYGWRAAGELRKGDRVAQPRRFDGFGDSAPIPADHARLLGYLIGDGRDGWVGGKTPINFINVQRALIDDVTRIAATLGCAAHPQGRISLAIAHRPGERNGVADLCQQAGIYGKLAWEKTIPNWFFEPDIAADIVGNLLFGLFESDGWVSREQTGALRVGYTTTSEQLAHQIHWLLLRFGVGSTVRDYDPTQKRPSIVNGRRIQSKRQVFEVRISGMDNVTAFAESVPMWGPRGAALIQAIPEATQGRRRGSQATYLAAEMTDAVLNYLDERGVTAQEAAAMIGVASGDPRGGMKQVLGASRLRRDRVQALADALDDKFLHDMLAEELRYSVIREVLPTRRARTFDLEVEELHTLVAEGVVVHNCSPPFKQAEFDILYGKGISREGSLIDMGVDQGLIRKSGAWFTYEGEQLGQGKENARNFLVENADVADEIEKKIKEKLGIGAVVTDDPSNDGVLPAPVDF
# cells [1] = format: functional, cell-based
# [2] = target: T2, Replicative DNA helicase DnaB (Mycobacterium tuberculosis, UniProt P9WMR3); assay: DnaB intein splicing inhibitors, dose response, biochemical, cell-free fluorescence (AID 449749); format: functional
# T2 sequence (P9WMR3 whole entry): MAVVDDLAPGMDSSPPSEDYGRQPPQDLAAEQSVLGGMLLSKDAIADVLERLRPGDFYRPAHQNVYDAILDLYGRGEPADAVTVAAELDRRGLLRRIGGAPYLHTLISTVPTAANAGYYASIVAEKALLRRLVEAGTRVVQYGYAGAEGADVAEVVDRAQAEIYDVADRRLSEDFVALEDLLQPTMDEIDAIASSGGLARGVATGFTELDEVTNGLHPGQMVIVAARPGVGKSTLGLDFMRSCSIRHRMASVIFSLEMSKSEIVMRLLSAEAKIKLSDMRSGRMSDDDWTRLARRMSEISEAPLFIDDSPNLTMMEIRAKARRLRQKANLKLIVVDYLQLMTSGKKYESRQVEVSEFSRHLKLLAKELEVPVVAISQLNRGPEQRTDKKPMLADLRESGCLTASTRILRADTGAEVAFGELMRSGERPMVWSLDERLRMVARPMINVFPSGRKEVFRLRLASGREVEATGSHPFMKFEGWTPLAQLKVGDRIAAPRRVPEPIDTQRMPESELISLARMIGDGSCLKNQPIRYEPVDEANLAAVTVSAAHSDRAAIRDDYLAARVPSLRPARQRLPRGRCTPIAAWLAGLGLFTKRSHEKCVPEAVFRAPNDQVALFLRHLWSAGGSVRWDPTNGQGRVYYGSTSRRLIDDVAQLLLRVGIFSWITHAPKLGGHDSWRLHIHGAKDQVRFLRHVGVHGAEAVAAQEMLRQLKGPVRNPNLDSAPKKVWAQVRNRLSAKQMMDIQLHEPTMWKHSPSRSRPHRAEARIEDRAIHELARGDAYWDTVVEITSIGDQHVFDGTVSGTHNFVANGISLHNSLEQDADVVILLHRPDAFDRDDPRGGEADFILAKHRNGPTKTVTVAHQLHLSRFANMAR
# Vero = assay: cells; format: functional; settings: Chlorocebus sabaeus
# [3] = Luminescence Cell-Based Dose Retest to Confirm Inhibitors of Cancer Stem Cells. [Related pubchem assays (depositor defined):AID2717, AID2721]; format: functional; settings: Homo sapiens
# cells [4] = format: functional, cell-based; remark: listed apart in the source
# [5] = target: ATP-dependent molecular chaperone HSP82 (Candida albicans (strain WO-1) (Yeast), UniProt C4YTQ8); assay: steroid-induced GRE reporter decrease in yeast – S. cerevisiae, luminescence, Hsp90 inhibitor project, dose response (AID 2400); format: functional, cell-based;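 also: beta-galactosidase luminescence from glucocorticoid response element reporter as proxy for Hsp90 function; inhibitor potency where signal loss means Hsp90 inhibition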
# [6] = NIH-3T3 fibroblast cytotoxicity, dose response, cytotoxicity control, cell-based, fluorescence, Alamar Blue, secondary assay (AID 2327); format: functional;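 also: NIH-3T3 mouse fibroblasts cultured with fluconazole at 8 µg/mL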
# [7] = target: T3, Serine/threonine-protein phosphatase (Candida dubliniensis (strain CD36 / CBS 7987 / NCPF 3949 / NRRLY-17841) (Yeast), UniProt B9W6M3); assay: blockers of CaCl2-induced CDRE-lacZ signaling – S. cerevisiae, luminescence, secondary, dose response (AID 2388); format: functional, cell-based;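 also: yeast reporter cells carrying a calcineurin-responsive lacZ construct stimulated with calcium chloride; luminescent beta-galactosidase reporter signal in whole cells rather than isolated phosphatase activity; potency for inhibition where a drop in reporter signal means calcineurin blockade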
# T3 sequence (B9W6M3 whole entry): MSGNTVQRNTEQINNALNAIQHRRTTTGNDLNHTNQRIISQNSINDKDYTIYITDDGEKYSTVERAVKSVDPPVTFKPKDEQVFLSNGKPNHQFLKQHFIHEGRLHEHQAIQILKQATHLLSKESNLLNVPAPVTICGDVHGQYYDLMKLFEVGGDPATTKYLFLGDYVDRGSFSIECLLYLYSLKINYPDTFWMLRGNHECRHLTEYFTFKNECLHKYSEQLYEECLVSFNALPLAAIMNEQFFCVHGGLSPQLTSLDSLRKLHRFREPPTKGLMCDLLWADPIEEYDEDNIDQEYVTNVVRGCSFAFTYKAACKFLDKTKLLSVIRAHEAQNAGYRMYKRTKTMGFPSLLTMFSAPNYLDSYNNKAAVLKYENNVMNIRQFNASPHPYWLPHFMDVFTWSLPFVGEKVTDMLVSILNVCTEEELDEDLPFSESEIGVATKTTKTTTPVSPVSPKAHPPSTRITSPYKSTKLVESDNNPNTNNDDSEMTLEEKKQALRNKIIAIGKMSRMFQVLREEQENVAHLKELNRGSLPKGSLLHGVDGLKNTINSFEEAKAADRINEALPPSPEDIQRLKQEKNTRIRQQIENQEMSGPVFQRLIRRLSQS
# [8] = fluconazole-exposed Candida albicans growth modulators – fluorescence, retest, confirmation (AID 2467); format: functional, cell-based
# [9] = target: T4, Short transient receptor potential channel 4 (Mus musculus, UniProt Q9QUQ5); assay: calcium entry via TRPC4 opening agents – cell-based, HEK293 TRPC4/mu-opioid, Fluo-4 calcium, dose response (AID 434937); format: functional
# T4 sequence (Q9QUQ5 whole entry): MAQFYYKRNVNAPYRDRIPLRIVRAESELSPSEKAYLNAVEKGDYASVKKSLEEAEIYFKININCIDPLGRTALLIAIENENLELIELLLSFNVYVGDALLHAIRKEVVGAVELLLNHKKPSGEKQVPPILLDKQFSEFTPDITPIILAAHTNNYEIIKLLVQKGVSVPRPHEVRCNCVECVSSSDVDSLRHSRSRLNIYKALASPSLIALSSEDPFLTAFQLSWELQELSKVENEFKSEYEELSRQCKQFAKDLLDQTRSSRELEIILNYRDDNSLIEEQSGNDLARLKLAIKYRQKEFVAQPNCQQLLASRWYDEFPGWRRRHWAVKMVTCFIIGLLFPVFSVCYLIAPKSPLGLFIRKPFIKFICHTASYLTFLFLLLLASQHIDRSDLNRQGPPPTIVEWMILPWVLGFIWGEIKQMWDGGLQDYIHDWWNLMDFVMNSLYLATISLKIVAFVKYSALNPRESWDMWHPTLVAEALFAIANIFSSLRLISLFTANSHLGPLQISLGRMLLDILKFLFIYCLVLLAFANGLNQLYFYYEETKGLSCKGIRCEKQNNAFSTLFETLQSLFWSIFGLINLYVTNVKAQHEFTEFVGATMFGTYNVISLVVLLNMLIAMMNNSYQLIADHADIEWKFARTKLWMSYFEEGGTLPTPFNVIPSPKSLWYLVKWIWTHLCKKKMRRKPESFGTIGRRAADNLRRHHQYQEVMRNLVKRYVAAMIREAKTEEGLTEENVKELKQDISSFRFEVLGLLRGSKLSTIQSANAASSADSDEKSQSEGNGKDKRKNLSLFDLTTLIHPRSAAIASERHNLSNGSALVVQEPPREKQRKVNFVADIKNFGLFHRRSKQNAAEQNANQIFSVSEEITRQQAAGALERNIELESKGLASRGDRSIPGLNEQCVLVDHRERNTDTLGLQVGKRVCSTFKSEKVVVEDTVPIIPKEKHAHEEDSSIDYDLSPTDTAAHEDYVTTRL
# [10] = target: T4, Short transient receptor potential channel 4; assay: block of DAMGO-driven TRPC4 calcium entry – cell-based, HEK293 TRPC4/mu-opioid, Fluo-4 calcium, dose response (AID 434942); format: functional;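 also: potency of inhibitors blocking the TRPC4 calcium response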
# [11] = target: 5-hydroxytryptamine receptor 5A (Homo sapiens, UniProt P47898); assay: Counterscreen for agonists of OPRM1-OPRD1 heterodimerization: luminescence-based cell-based high throughput dose response assay to identify agonists of 5-hydroxytryptamine (serotonin) 5A receptor (HTR5A). [Related pubchem assays (depositor defined):AID504326, AID504355, AID504692, AID504904, AID504905]; format: functional
# Mu-type opioid receptor = Mu-type opioid receptor (Homo sapiens, UniProt P35372); assay: (§1) Counterscreen for agonists of heterodimerization of the mu 1 (OPRM1) and delta 1 (OPRD1) opioid receptors: Luminescence-based cell-based high throughput dose response assay to identify agonists of OPRM1 homodimerization.; format: functional
# [12] = target: Delta-type opioid receptor (Homo sapiens, UniProt P41143); assay: as §1, with “of OPRD1” for “of OPRM1”, “homodimerization. [Related pubchem assays (depositor defined):AID504326, AID504355, AID504692, AID504904, AID504905]” for “homodimerization.”; format: functional
# [13] = Trypanosoma cruzi growth suppression in host cells – NIH3T3 host cells, beta-gal luminescence, confirmation (AID 2044); format: functional, cell-based;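 also: intracellular parasites grown in NIH/3T3 mouse fibroblasts as host cells; luminescent beta-galactosidase reporter signal from transgenic T. cruzi replicating inside host cells; inhibitors lower the luminescence signal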
# cells [14] = format: functional
# [15] = NIH3T3 cell viability loss – ATP luminescence, mouse fibroblasts, counter-screen, dose response (AID 2010); format: functional, cell-based;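 also: cells exposed to compound for about 90 hours before reading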
# [16] = THP-1 cell cytotoxicity, dose response, cytotoxicity control for non-replicating M. tuberculosis project (AID 489025); format: functional
# [17] = target: T5, Carboxy-terminal domain RNA polymerase II polypeptide A small phosphatase 1 (Homo sapiens, UniProt Q9GZU7); assay: CTDSP1 inhibitors, concentration-response, biochemical, absorbance readout, ultra-high-throughput screen actives (AID 540297); format: functional
# T5 sequence (Q9GZU7 whole entry): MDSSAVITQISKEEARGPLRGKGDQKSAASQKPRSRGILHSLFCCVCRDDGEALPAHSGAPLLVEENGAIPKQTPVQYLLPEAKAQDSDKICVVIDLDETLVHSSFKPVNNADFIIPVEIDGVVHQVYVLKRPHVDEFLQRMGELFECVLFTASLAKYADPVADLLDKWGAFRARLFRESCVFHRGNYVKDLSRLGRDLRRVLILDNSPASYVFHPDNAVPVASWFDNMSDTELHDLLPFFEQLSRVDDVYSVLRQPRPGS
# Sequence of Delta-type opioid receptor (P41143 whole entry): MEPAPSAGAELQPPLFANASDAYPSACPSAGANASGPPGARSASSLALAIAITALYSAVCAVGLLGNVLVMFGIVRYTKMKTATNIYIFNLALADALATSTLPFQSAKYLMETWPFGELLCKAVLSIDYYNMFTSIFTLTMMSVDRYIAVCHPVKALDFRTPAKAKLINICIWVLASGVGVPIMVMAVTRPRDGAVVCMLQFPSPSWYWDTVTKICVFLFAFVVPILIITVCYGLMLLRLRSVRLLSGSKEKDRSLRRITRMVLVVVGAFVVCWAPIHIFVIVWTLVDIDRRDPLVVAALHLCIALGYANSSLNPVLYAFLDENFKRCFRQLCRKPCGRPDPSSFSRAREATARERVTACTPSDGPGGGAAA
# Sequence of 5-hydroxytryptamine receptor 5A (P47898 whole entry): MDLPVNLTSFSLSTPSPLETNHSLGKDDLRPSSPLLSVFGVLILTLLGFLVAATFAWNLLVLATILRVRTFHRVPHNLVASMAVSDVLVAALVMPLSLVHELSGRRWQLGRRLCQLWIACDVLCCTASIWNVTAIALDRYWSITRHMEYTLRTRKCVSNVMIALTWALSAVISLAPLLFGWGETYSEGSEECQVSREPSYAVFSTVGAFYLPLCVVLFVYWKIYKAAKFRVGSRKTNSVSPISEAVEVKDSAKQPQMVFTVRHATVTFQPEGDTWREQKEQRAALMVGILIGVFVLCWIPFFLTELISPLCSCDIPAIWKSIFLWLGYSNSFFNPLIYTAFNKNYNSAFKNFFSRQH
# Sequence of Mu-type opioid receptor (P35372 whole entry): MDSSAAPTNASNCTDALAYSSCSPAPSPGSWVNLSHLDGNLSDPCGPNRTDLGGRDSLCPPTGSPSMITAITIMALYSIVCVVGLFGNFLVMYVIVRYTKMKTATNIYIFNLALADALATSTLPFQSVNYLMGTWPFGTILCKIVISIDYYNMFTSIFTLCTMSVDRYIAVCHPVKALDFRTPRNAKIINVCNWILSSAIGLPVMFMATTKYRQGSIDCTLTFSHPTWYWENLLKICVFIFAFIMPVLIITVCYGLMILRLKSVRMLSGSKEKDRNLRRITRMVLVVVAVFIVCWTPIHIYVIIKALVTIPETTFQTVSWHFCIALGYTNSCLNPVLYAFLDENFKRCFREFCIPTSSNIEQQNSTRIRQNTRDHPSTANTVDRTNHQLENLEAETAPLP
# Sequence of ATP-dependent molecular chaperone HSP82 (C4YTQ8 whole entry): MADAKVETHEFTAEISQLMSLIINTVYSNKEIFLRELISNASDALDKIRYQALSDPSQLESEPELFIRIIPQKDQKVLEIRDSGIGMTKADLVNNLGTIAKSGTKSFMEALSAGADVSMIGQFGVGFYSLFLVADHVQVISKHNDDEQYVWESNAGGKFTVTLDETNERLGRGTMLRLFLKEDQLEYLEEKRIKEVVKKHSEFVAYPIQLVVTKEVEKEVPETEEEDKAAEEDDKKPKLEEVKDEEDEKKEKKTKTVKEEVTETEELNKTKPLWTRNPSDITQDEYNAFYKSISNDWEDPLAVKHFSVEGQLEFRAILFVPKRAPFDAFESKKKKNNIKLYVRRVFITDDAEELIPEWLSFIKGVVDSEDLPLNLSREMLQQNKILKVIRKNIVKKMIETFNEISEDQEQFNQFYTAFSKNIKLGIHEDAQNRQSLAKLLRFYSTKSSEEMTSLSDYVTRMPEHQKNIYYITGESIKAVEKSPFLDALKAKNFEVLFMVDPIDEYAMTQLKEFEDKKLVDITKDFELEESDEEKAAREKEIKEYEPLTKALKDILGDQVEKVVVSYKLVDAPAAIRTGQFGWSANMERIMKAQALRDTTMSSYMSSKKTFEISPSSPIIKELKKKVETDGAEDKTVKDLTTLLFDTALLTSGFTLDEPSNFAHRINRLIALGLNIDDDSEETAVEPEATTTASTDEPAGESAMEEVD
structure (smiles),measurement,setting,value
Cc1ccc(-c2nnc(Sc3nc4ccccc4o3)c3ccccc23)cc1,EC50,Protein RecA,0.396 µM (active)
same,EC50,cells [1],> 350 µM (not active)
same,AC50,[2],2.39 µM (active)
same,CC50,Vero,> 25 µM (active)
same,AC50,[3],6.09 µM (active)
same,EC50,cells [4],> 350 µM (not active)
Cc1ccc(C(=O)Nc2cccc(-c3cn4ccccc4n3)c2)cc1,EC50,[5],> 160 µM (inactive)
same,EC50,[6],> 150 µM (inactive)
same,EC50,[7],> 180 µM (inactive)
same,EC50,[8],0.628 µM (active)
CN(C)C(CNC(=O)c1ccc(C(F)(F)F)cc1)c1ccco1 (configuration not stated),EC50,[9],0.267 µM (active)
same,EC50,[10],0.0533 µM (active)
same,EC50,[11],> 92.4 µM (inactive)
same,EC50,Mu-type opioid receptor,> 92.4 µM (inactive)
same,EC50,[12],91 µM (inactive)
C/C(=N/Nc1ccnc2cc(Cl)ccc12)c1ccc(N)cc1,EC50,[13],3.31 µM (active)
same,IC50,cells [14],29 µM (active)
same,EC50,[11],> 92.4 µM (inactive)
same,EC50,Mu-type opioid receptor,54.7 µM (inactive)
same,EC50,[15],> 60 µM (not active)
same,EC50,[12],29.5 µM (inactive)
same,CC50,[16],23.4 µM (active)
COc1ccc(C(=O)N/N=C/c2ccc(OC(=O)c3cccc4ccccc34)c([N+](=O)[O-])c2)cc1,IC50,[17],2.4 µM (active)
O=C(O)c1cc(-c2ccc(/C=C3\NC(=O)N(c4ccccc4)C3=O)o2)ccc1Cl,IC50,[17],5.09 µM (active)
c1ccc(C2(N3CCCCC3)CCCCC2)cc1 [PHENCYCLIDINE HYDROCHLORIDE],EC50,[11],> 92.5 µM (inactive)
same,EC50,Mu-type opioid receptor,6.29 µM (active)
same,EC50,[12],33.6 µM (inactive)
